Patent publication US6465461B1, “Triazine compounds for treatment of CNS disorders” (SmithKline Beecham Corporation, priority 1997, dated 2002)
pIC50: −log10 of the molar value.

Key:
rat = experiment: Rat intraplantar carrageenan model of hyperalgesia and inflammation; format: in vivo; conditions: oral; for ED50: Rattus norvegicus, 30 minutes prior to carrageenan (100 μl of 2% intraplantar), read at three hours, read-out: ED50 for inhibition of the carrageenan-induced reduction in weight bearing
Method: Three hours after intraplantar carrageenan administration (100 μl of 2%) in the rat there is a reduction in weight bearing on the inflamed paw and an increase in paw volume consistent with acute hyperalgesia and inflammation.

[1] = biological target: recombinant human brain type IIA Na+ channel expressed in Chinese hamster ovary cells (Homo sapiens, UniProt Q99250); experiment: Whole-cell voltage-clamp on voltage-gated sodium channels
Chain of recombinant human brain type IIA Na+ channel expressed in Chinese hamster ovary cells (Q99250 whole entry, the tested form may be a part): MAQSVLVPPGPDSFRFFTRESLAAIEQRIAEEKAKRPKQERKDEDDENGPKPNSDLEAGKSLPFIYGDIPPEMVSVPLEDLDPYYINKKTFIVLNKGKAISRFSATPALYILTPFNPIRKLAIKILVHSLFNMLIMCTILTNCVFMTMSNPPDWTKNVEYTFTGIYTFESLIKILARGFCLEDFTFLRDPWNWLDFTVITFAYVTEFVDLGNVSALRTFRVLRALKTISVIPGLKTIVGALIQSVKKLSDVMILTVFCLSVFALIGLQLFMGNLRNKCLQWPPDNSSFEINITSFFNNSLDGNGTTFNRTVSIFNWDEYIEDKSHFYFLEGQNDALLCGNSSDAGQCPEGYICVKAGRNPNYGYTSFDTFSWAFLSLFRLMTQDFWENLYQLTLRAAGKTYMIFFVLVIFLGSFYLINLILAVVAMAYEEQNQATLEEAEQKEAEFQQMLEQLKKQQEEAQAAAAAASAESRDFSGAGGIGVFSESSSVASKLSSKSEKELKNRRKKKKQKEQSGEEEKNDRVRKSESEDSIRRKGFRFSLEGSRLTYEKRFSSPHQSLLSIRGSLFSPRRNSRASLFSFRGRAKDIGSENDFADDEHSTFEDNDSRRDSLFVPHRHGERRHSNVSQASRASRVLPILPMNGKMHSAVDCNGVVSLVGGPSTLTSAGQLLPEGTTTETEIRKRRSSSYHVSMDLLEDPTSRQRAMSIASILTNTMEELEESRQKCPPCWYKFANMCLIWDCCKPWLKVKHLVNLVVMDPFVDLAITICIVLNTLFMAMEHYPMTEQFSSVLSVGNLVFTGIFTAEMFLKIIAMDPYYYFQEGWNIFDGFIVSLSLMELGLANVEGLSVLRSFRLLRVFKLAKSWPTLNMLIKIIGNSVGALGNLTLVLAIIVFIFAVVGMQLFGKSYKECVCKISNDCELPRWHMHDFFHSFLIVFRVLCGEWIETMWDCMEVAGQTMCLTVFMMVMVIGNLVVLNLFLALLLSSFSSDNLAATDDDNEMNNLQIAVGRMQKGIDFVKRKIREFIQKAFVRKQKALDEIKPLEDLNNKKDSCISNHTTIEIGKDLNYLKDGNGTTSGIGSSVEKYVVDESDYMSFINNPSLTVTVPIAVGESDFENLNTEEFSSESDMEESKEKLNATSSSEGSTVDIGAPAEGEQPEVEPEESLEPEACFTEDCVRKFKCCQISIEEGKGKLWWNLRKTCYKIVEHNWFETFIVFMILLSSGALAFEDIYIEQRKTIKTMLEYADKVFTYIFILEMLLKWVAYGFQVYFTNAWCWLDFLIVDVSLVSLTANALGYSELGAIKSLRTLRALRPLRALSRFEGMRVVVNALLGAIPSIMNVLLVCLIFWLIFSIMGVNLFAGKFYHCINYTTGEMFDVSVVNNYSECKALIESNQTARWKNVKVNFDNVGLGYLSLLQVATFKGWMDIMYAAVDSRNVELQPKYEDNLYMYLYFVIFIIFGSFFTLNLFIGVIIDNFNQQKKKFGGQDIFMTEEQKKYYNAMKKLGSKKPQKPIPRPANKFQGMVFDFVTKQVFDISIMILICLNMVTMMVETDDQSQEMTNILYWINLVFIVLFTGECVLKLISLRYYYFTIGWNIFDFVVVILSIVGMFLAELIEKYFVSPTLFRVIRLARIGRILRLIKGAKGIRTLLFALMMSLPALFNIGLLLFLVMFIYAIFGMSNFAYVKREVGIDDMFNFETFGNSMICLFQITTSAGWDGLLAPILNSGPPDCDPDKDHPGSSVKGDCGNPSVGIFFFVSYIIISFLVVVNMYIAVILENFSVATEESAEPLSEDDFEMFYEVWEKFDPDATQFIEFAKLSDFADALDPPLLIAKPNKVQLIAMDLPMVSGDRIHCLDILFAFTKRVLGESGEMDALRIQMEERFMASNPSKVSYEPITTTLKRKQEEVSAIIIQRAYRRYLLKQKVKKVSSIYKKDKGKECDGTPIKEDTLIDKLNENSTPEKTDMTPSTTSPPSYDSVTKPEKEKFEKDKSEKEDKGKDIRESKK

mouse = experiment: Mouse pentylenetetrazol infusion test; format: in vivo; conditions: 1 h, read-out: ED50 in pentylenetetrazol infusion test (time to second twitch)
male Han Wistar rats = experiment: Rat maximal electroshock test (MES); format: in vivo; conditions: oral, 2 hr prior to test; for ED50: Rattus norvegicus, suspension in 0.25% methylcellulose, 200 mA, 200 millisec, read-out: MES ED50 (hind limb extension); for therapeutic index (ratio of the ataxia ED50 and MES ED50): rat
Method: For example, male Han Wistar rats (150-200 grms) were dosed orally with a suspension of the test compound in 0.25% methylcellulose 2 hr prior to test. A visual observation is carried out just prior to testing for the presence of ataxia. Using auricular electrodes a current of 200 mA, duration 200 millisec, is applied and the presence or absence of hind limb extension noted.

Male C57BL/6 mice = experiment: Mouse MPTP induced neurotoxicity (striatal dopamine depletion); format: in vivo; conditions: 30 minutes before each MPTP injection, striata seven days after MPTP
Method: The mouse MPTP model is generally used as a model of Parkinson's disease.
Male C57BL/6 mice received four intraperitoneal injections of MPTP.HCl (15 mg of free base per kg; Research Biochemicals) in saline at 2 hour intervals. Control mice received saline only. The test-compound was administered as four subcutaneous injections in olive oil at 2 hour intervals, 30 minutes before each MPTP injection.
Seven days after MPTP injection the mice were sacrificed and the striata dissected out, immediately frozen, and stored at −80° C. until analysis. On the day of assay issue samples were sonicated in 10 volume (wt./vol.) of 0.1 M perchloric acid containing 1.9 mM sodium hydrosulfite and 1.6 mg/ml DBA-HBr. After centrifugation (2800 g, 10 min at room temperature) and filtration (pore size 0.5 μm, Millipore), the supernatant was transferred to a vial and placed in the automatic sampler (M231XL, Gilson). Dopamine content was measured by high performance liquid chromatography. A compound of formula (I) produced 75% protection against dopamine depletion when dosed at 3 mg/kg (×4) and 98% protection when dosed at 10 mg/kg (×4).

Question: Which results are given for Nc1ncnnc1-c1cc(Cl)cc(Cl)c1Cl [compound of formula (I), 5-amino-6-[2,3,5-trichlorophenyl]-1,2,4-triazine]?
Answer: reduction in paw volume (anti-inflammatory activity) (rat; 30 mg/kg, 30 minutes prior to carrageenan): 50%; ED50 (rat): 7.5 mg/kg; pIC50 [1]: 3.11; state selectivity (potency at inactivated state versus resting state) [1]: approximately 70 fold; ED50 (mouse): 3.8 mg/kg; ED50 (male Han Wistar rats): 1.7 mg/kg; therapeutic index (ratio of the ataxia ED50 and MES ED50) (male Han Wistar rats): 23.7; protection against dopamine depletion (Male C57BL/6 mice; 3 mg/kg (×4) subcutaneous): 75%; protection against dopamine depletion (Male C57BL/6 mice; 10 mg/kg (×4) subcutaneous): 98%

Question: Nc1nnc(-c2cccc(Cl)c2Cl)c(N)n1 [lamotrigine, 3,5diamino-6-(2,3dichlorophenyl)-1,2,4-triazine, reference compound] was tested. Which ED50 (rat) did it give?
Answer: The ED50 was 23.5 mg/kg.

Question: And the “state selectivity (potency at inactivated state versus resting state)” value [1]?
Answer: Its value is “approximately 30 fold”.

Question: What about the ED50 (mouse) of the same compound?
Answer: Its ED50 is 8.4 mg/kg.

Question: What about the ED50 (male Han Wistar rats) of the same compound?
Answer: The ED50 was 6.1 mg/kg.

Question: What about the “therapeutic index (ratio of the ataxia ED50 and MES ED50)” value (male Han Wistar rats) of the same compound?
Answer: Its value is 3.3.
